In ChEMBL document CHEMBL1127062 (J Med Chem, 1993) one finds IC50 data, which are given here for 12 compounds.

Structures are written as SMILES.

The target in this test is Ryanodine receptor 1 (Oryctolagus cuniculus, UniProt P11716). Nature of the test: Affinity for sarcoplasmic reticular calcium release channel (SR CRC) of rabbit skeletal membrane vesicles.
Ryanodine receptor 1, sequence (P11716 whole entry): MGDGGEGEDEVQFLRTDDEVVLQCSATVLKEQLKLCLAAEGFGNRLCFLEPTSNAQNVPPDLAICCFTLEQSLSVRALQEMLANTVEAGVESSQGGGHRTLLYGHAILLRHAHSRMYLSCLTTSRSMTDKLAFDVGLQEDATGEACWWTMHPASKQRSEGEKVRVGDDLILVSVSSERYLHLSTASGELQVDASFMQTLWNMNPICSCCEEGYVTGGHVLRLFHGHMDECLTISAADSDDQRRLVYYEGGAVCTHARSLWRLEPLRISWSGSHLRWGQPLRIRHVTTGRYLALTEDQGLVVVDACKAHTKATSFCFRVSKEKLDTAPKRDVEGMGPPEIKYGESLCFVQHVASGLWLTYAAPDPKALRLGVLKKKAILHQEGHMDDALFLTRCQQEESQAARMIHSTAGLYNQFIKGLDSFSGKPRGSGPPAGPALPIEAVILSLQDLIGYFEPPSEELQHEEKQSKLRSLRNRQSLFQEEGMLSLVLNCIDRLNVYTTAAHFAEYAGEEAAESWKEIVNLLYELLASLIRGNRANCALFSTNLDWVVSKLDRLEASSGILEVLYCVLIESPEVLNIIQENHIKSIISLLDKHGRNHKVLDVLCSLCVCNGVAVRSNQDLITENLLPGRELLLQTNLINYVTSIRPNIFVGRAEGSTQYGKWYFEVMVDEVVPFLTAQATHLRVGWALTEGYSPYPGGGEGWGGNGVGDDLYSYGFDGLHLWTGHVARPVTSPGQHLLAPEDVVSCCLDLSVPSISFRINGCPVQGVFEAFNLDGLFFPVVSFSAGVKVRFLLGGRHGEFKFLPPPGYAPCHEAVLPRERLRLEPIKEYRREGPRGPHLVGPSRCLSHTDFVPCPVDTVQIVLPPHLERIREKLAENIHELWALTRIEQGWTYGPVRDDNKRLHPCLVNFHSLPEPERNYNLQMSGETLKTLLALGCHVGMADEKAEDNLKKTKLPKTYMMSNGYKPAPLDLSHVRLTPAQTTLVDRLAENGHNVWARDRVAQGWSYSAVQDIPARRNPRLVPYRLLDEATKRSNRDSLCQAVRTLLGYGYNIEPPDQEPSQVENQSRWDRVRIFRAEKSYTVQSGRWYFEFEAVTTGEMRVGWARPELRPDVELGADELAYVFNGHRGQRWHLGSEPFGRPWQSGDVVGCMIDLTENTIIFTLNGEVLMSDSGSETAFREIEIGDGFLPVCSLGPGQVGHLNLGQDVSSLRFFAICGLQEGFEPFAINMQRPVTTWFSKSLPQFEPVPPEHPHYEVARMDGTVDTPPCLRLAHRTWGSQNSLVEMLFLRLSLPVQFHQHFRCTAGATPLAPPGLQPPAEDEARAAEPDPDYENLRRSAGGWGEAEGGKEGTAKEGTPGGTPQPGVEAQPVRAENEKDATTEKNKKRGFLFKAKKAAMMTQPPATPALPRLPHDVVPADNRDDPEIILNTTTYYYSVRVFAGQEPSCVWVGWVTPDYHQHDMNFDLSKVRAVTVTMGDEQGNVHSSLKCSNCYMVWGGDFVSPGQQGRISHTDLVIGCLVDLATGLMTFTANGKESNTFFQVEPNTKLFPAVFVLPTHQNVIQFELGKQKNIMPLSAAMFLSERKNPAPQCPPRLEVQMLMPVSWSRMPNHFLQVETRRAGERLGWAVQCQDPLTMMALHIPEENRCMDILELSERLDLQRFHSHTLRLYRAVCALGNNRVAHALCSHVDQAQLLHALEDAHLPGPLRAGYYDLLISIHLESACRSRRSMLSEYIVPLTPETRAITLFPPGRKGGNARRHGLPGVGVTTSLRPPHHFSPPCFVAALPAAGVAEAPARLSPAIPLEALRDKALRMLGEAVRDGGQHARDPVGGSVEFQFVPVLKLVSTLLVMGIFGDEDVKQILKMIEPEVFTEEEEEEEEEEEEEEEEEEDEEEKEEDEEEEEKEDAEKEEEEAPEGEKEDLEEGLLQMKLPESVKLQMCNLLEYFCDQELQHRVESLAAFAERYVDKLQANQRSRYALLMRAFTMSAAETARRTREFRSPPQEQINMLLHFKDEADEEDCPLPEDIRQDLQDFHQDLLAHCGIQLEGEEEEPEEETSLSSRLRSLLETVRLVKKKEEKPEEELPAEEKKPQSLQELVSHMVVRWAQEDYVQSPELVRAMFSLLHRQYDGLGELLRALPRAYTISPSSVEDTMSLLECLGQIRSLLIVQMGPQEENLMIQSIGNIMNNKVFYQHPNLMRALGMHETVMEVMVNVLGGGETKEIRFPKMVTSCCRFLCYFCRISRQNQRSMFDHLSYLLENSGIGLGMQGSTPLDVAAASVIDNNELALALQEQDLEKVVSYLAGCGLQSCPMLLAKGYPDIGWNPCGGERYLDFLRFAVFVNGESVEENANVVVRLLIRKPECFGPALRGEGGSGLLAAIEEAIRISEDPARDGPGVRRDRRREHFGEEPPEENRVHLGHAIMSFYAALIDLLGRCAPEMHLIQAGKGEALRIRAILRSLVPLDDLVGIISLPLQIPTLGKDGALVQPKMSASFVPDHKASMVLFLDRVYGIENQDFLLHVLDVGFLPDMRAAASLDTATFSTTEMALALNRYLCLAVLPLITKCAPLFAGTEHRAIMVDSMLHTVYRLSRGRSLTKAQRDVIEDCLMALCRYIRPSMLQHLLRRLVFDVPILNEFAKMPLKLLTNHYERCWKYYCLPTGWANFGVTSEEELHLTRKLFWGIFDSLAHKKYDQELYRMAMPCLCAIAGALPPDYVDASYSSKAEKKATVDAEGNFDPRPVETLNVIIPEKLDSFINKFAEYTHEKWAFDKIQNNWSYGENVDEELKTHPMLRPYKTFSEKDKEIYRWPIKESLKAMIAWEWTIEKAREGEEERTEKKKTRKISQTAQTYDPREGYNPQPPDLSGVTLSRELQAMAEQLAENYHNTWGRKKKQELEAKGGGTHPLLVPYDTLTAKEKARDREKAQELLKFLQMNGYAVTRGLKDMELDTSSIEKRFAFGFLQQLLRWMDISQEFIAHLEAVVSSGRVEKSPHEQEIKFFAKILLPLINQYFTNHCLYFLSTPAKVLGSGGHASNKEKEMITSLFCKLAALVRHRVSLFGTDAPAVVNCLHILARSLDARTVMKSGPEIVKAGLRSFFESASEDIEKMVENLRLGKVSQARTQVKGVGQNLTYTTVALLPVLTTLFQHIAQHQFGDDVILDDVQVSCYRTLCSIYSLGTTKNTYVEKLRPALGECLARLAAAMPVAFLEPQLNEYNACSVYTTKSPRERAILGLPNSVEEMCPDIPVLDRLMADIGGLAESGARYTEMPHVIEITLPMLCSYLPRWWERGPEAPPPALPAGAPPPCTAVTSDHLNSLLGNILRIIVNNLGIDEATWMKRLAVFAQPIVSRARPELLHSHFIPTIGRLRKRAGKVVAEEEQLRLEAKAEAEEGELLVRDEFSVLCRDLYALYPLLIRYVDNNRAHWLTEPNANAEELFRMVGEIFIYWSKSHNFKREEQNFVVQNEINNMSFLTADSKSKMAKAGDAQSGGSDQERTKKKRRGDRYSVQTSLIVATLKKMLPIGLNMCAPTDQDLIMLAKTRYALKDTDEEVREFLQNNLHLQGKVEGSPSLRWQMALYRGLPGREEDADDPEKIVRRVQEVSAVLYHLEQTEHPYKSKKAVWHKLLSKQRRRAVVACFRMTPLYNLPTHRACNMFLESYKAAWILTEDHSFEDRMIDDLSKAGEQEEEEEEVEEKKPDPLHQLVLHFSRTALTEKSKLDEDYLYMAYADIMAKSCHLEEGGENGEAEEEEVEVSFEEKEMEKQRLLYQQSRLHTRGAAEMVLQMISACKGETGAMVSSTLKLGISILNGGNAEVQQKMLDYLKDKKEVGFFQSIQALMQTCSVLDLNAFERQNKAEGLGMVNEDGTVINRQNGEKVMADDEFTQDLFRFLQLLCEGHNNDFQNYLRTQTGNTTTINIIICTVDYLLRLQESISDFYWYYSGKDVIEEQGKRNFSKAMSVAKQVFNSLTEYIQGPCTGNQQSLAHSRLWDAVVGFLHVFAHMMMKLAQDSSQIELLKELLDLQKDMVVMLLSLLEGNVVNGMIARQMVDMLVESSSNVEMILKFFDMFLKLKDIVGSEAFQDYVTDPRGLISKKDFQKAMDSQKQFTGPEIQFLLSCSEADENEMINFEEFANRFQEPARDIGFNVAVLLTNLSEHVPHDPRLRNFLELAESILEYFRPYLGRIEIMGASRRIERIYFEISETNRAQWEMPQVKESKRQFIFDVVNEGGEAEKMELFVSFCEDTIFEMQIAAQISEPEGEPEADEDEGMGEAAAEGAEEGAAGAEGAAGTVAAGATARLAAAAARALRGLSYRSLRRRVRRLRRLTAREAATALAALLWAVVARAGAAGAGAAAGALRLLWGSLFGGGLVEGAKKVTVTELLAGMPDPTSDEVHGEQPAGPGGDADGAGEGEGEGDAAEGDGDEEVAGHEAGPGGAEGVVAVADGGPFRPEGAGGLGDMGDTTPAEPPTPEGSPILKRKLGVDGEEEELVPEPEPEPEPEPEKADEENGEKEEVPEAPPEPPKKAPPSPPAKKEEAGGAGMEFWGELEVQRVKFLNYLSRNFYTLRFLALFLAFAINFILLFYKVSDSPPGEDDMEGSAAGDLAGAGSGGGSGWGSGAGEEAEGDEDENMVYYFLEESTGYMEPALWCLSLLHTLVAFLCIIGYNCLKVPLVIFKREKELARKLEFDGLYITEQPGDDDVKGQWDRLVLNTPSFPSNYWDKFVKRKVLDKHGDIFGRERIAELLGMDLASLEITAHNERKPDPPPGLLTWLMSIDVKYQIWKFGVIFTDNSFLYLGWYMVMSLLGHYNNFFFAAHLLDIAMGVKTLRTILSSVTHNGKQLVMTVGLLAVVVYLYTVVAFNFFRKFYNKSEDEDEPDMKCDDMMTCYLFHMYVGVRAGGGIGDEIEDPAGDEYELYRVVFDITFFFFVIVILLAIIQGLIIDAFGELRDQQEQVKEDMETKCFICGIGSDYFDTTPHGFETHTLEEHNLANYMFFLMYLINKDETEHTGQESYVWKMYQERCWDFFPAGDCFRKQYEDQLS
For orientation: IC50 means the concentration needed to halve the response being measured. For `CC1CCC2(O)C3(OC4(O)C[C@]2(C)C2(O)[C@H](OC(=O)c5ccc[nH]5)C(O)(C(C)C)C4(C)C32O)[C@@H]1OC(=O)CCN` (some centres not stated), the IC50 turned out to be 2.6 nM.

For `CC1CCC2(O)C3(OC4(O)C[C@]2(C)C2(O)[C@H](OC(=O)c5ccc[nH]5)C(O)(C(C)C)C4(C)C32O)[C@@H]1OC(=O)CNC(=N)N` (some centres not stated), the IC50 stood at 1.8 nM.

As to `C=C1CCC2(O)C3(OC4(O)C[C@]2(C)C2(O)[C@H](OC(=O)c5ccc[nH]5)C(O)(C(C)C)C4(C)C32O)[C@@H]1O` (stereo in doubt; 2) [ANHYDRORYANIDINE], the half-maximal inhibitory concentration (IC50) amounted to 8.9 nM.

Take `CNC(=O)CCC(=O)O[C@@H]1C(C)CCC2(O)C13OC1(O)C[C@]2(C)C2(O)[C@H](OC(=O)c4ccc[nH]4)C(O)(C(C)C)C1(C)C32O` (some centres not stated): the concentration for half-maximal inhibition (IC50) came out at 49.4 nM.

Turning to `CC1CCC2(O)C3(OC4(O)C[C@]2(C)C2(O)[C@H](OC(=O)c5ccc[nH]5)C(O)(C(C)C)C4(C)C32O)[C@@H]1OC(=O)CCNC(=O)OCc1ccccc1` (some centres not stated), the IC50 amounted to 5.9 nM.

On to `C=C1CCC2(O)C3(OC4(O)C[C@]2(C)C2(O)[C@H](OC(=O)c5ccc[nH]5)C(O)(C(C)C)C4(C)C32O)[C@@H]1O` (stereo in doubt) [ANHYDRORYANIDINE], for which the half-inhibitory concentration (IC50) is greater than 10000 nM.

`CC1CCC2(O)C3(OC4(O)C[C@]2(C)C2(O)[C@H](OC(=O)c5ccc[nH]5)C(O)(C(C)C)C4(C)C32O)[C@@H]1OC(=O)CN` (some centres not stated) [GLYCYLRYANODINE]: the half-inhibitory concentration (IC50) came to 1.8 nM.

In the case of `CC1CCC2(O)C3(OC4(O)C[C@]2(C)C2(O)[C@H](OC(=O)c5ccc[nH]5)C(O)(C(C)C)C4(C)C32O)[C@@H]1OC(=O)CCC(=O)O` (some centres not stated), the IC50 was greater than 1000 nM.

Consider `CC1CCC2(O)C3(OC4(O)C[C@]2(C)C2(O)[C@H](OC(=O)c5ccc[nH]5)C(O)(C(C)C)C4(C)C32O)[C@@H]1OC(=O)CCN=C(NC(=O)OCc1ccccc1)NC(=O)OCc1ccccc1` (some centres not stated), for which the half-maximal inhibitory concentration (IC50) was found to be 43.6 nM.

Take `CC1CCC2(O)C3(OC4(O)C[C@]2(C)C2(O)[C@H](OC(=O)c5ccc[nH]5)C(O)(C(C)C)C4(C)C32O)[C@@H]1OC(=O)CNC(=O)OCc1ccccc1` (some centres not stated): the IC50 amounted to 4.8 nM.

For the compound `CC1CCC2(O)C3(OC4(O)C[C@]2(C)C2(O)[C@H](OC(=O)c5ccc[nH]5)C(O)(C(C)C)C4(C)C32O)[C@@H]1OC(=O)CNC(=NC(=O)OCc1ccccc1)NC(=O)OCc1ccccc1` (some centres not stated), the 50% inhibitory concentration (IC50) turned out to be 136 nM.

In the case of `CC1CCC2(O)C3(OC4(O)C[C@]2(C)C2(O)[C@H](OC(=O)c5ccc[nH]5)C(O)(C(C)C)C4(C)C32O)[C@@H]1OC(=O)CCN=C(N)N` (some centres not stated), the IC50 worked out at 1.1 nM.
